Data published in PubChem BioAssay (NCI).
“And” between values parts separate entries of the source, which are not always exact repeats. Equal entries are not always repeated.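 Results reflect a 48-hour exposure of cells in 96-well plates to compound at five concentrations. The concentration for 50% growth inhibition is given as GI50. The concentration for full growth arrest is given as TGI.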

Assays:
Assay in all cases: inhibition of tumour cell growth, NCI panel, 48 h
PC-3 prostate = tested on: PC-3 prostate
HOP-18 NSCLC = tested on: HOP-18 NSCLC
HT29 colon = tested on: HT29 colon
NCI-H23 lung = tested on: NCI-H23 lung
HCT-15 colon = tested on: HCT-15 colon
UO-31 renal = tested on: UO-31 renal
EKVX NSCLC = tested on: EKVX NSCLC
SF-268 CNS = tested on: SF-268 CNS
M19-MEL melanoma = tested on: M19-MEL melanoma
MOLT-4 leukemia = tested on: MOLT-4 leukemia
COLO 205 colon = tested on: COLO 205 colon
UACC-257 melanoma = tested on: UACC-257 melanoma
OVCAR-4 ovarian = tested on: OVCAR-4 ovarian
DMS 273 small cell lung = tested on: DMS 273 small cell lung
MDA-MB-231 breast = tested on: MDA-MB-231 breast
A498 renal = tested on: A498 renal
KM20L2 colon = tested on: KM20L2 colon
MALME-3M melanoma = tested on: MALME-3M melanoma
CCRF-CEM leukemia = tested on: CCRF-CEM leukemia
NCI-H522 lung = tested on: NCI-H522 lung
SNB-75 CNS = tested on: SNB-75 CNS
SN12C renal = tested on: SN12C renal
LOX IMVI melanoma = tested on: LOX IMVI melanoma
HS 578T breast = tested on: HS 578T breast
HOP-62 NSCLC = tested on: HOP-62 NSCLC
MDA-MB-435 = tested on: MDA-MB-435
DLD-1 colon = tested on: DLD-1 colon
SF-539 CNS = tested on: SF-539 CNS
NCI/ADR-RES ovarian = tested on: NCI/ADR-RES ovarian
RXF 393 renal = tested on: RXF 393 renal
SNB-19 CNS = tested on: SNB-19 CNS
NCI-H226 lung = tested on: NCI-H226 lung
NCI-H460 lung = tested on: NCI-H460 lung
UACC-62 melanoma = tested on: UACC-62 melanoma
SK-MEL-2 melanoma = tested on: SK-MEL-2 melanoma
SK-MEL-28 melanoma = tested on: SK-MEL-28 melanoma
DU-145 prostate = tested on: DU-145 prostate
XF 498 CNS = tested on: XF 498 CNS
OVCAR-5 ovarian = tested on: OVCAR-5 ovarian
IGROV1 ovarian = tested on: IGROV1 ovarian
M14 melanoma = tested on: M14 melanoma
SK-MEL-5 melanoma = tested on: SK-MEL-5 melanoma
DMS 114 small cell lung = tested on: DMS 114 small cell lung
786-0 renal = tested on: 786-0 renal
OVCAR-8 ovarian = tested on: OVCAR-8 ovarian
K-562 leukemia = tested on: K-562 leukemia
A549 NSCLC = tested on: A549 NSCLC
U251 CNS = tested on: U251 CNS
HOP-92 NSCLC = tested on: HOP-92 NSCLC
TK-10 renal = tested on: TK-10 renal
HL-60(TB) leukemia = tested on: HL-60(TB) leukemia
ACHN renal = tested on: ACHN renal
HCC-2998 colon = tested on: HCC-2998 colon
MCF7 breast = tested on: MCF7 breast
OVCAR-3 ovarian = tested on: OVCAR-3 ovarian
SF-295 CNS = tested on: SF-295 CNS
SNB-78 CNS = tested on: SNB-78 CNS
KM12 colon = tested on: KM12 colon
HCT-116 colon = tested on: HCT-116 colon
MDA-N = tested on: MDA-N
SW-620 colon = tested on: SW-620 colon

With `COc1ccc(/C=C\c2cc(OC)c(OC)c(OC)c2)cc1OC(=O)CC(N)C(=O)O` (centres undefined) the GI50 (PC-3 prostate) was 2.27 nM, the GI50 (HOP-18 NSCLC) was > 100000 nM and the TGI (HOP-18 NSCLC) was > 100000 nM. The GI50 (HT29 colon) was 4650 nM, the TGI (HT29 colon) was 39600 nM and the GI50 (NCI-H23 lung) was 0.635 nM. For the same compound, the TGI (NCI-H23 lung) was 46.5 nM, the GI50 (HCT-15 colon) was 0.452 nM and the GI50 (UO-31 renal) was 1.7 nM. The TGI (UO-31 renal) was 58600 nM, the TGI (EKVX NSCLC) was > 100000 nM and the GI50 (SF-268 CNS) was 0.945 nM. The TGI (SF-268 CNS) was 365 nM, the TGI (M19-MEL melanoma) was > 100000 nM and the GI50 (MOLT-4 leukemia) was 1.72 nM. It also gave a GI50 (COLO 205 colon) of 4110 nM, a TGI (COLO 205 colon) of 21000 nM and a GI50 (UACC-257 melanoma) of 11900 nM. The TGI (UACC-257 melanoma) was > 100000 nM, the GI50 (OVCAR-4 ovarian) was 9510 nM and the TGI (OVCAR-4 ovarian) was > 100000 nM. For the same compound, the TGI (DMS 273 small cell lung) was 4.62 nM, the GI50 (MDA-MB-231 breast) was 4.02 nM and the TGI (MDA-MB-231 breast) was 4.04 nM. It also gave a TGI (A498 renal) of 8.88 nM, a TGI (KM20L2 colon) of 21200 nM and a GI50 (MALME-3M melanoma) of 1.02 nM. The GI50 (CCRF-CEM leukemia) was 0.495 nM, the GI50 (NCI-H522 lung) was 0.424 nM and the TGI (NCI-H522 lung) was 1.57 nM and 1.92 nM. The GI50 (SNB-75 CNS) was 2.86 nM, the GI50 (SN12C renal) was 4.12 nM and the TGI (SN12C renal) was > 100000 nM. The GI50 (LOX IMVI melanoma) was 0.0639 nM, the GI50 (HS 578T breast) was 2.62 nM and the TGI (HS 578T breast) was 3.14 nM. For the same compound, the TGI (HOP-62 NSCLC) was > 100000 nM, the TGI (MDA-MB-435) was 0.316 nM and the TGI (DLD-1 colon) was > 100000 nM. For the same compound, the GI50 (SF-539 CNS) was 0.427 nM, the TGI (SF-539 CNS) was 5.77 nM and 37.4 nM and the TGI (NCI/ADR-RES ovarian) was 0.534 nM. The GI50 (RXF 393 renal) was 1.22 nM, the GI50 (SNB-19 CNS) was 0.909 nM and the TGI (NCI-H226 lung) was 107 nM. For the same compound, the GI50 (NCI-H460 lung) was 0.48 nM, the GI50 (UACC-62 melanoma) was 0.354 nM and the TGI (UACC-62 melanoma) was > 100000 nM. For the same compound, the GI50 (SK-MEL-2 melanoma) was 1.51 nM and 2.49 nM, the TGI (SK-MEL-2 melanoma) was 8.12 nM and the GI50 (SK-MEL-28 melanoma) was 0.728 nM. The TGI (SK-MEL-28 melanoma) was > 100000 nM, the TGI (DU-145 prostate) was 18.7 nM and the TGI (XF 498 CNS) was 7.92 nM. For the same compound, the GI50 (OVCAR-5 ovarian) was 55800 nM, the TGI (OVCAR-5 ovarian) was > 100000 nM and the GI50 (IGROV1 ovarian) was 3.55 nM. For the same compound, the TGI (IGROV1 ovarian) was > 100000 nM, the GI50 (M14 melanoma) was 0.46 nM and the GI50 (SK-MEL-5 melanoma) was 0.453 nM and 1.41 nM. For the same compound, the TGI (DMS 114 small cell lung) was 3.18 nM, the GI50 (786-0 renal) was 0.174 nM and the GI50 (OVCAR-8 ovarian) was 1.95 nM. The GI50 (K-562 leukemia) was 0.493 nM, the TGI (K-562 leukemia) was > 100000 nM and the GI50 (A549 NSCLC) was 3.04 nM. For the same compound, the TGI (A549 NSCLC) was 49500 nM, the GI50 (U251 CNS) was 0.352 nM and the TGI (U251 CNS) was 8.55 nM and 70.2 nM. For the same compound, the GI50 (HOP-92 NSCLC) was 3.39 nM, the TGI (HOP-92 NSCLC) was 77300 nM and the GI50 (TK-10 renal) was 36900 nM. For the same compound, the TGI (TK-10 renal) was > 100000 nM, the GI50 (HL-60(TB) leukemia) was 0.165 nM and the GI50 (ACHN renal) was 0.709 nM. The TGI (ACHN renal) was > 100000 nM, the GI50 (HCC-2998 colon) was 95.1 nM and the TGI (HCC-2998 colon) was > 100000 nM. For the same compound, the GI50 (MCF7 breast) was 24.4 nM, the GI50 (OVCAR-3 ovarian) was 0.506 nM and the TGI (OVCAR-3 ovarian) was 5.28 nM and 4.84 nM and 19.3 nM. The GI50 (SF-295 CNS) was 0.726 nM, the TGI (SF-295 CNS) was 3.05 nM and 6.13 nM and the TGI (SNB-78 CNS) was > 100000 nM. The GI50 (KM12 colon) was 0.979 nM, the GI50 (HCT-116 colon) was 0.0407 nM and the TGI (MDA-N) was 0.474 nM. The GI50 (SW-620 colon) was 0.318 nM and the TGI (SW-620 colon) was > 100000 nM.
